Test results reported in patent publication US10722514B2 (FLX Bio, Inc., priority 2017, dated 2020).
Counter-ions that a name gives are not always drawn.

Biological target: T1, recombinant full-length USP7 (Homo sapiens, UniProt Q93009)
T1 construct: A 25 μl reaction volume containing recombinant full-length USP7 (62 pM)
Test: USP7-mediated ubiquitin-rhodamine cleavage assay
Type: biochemical
Details: recombinant full-length USP7 62 pM; ubiquitin-rhodamine 100 nM; 30-minute incubation with compound, 1 hour reaction at room temperature; read-out: Potency: USP7 IC50
In short: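 Full-length recombinant USP7 (62 pM) in 20 mM HEPES pH 7.3, 150 mM NaCl, 1 mM TCEP, 125 μg/ml BSA, 1% DMSO, preincubated with compound 30 min at RT. Ubiquitin-rhodamine (100 nM final) cleaved 1 h at RT in the dark, stopped with acetic acid; rhodamine fluorescence read, IC50 by 4-parameter nonlinear fit.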

T1 sequence (Q93009 whole entry): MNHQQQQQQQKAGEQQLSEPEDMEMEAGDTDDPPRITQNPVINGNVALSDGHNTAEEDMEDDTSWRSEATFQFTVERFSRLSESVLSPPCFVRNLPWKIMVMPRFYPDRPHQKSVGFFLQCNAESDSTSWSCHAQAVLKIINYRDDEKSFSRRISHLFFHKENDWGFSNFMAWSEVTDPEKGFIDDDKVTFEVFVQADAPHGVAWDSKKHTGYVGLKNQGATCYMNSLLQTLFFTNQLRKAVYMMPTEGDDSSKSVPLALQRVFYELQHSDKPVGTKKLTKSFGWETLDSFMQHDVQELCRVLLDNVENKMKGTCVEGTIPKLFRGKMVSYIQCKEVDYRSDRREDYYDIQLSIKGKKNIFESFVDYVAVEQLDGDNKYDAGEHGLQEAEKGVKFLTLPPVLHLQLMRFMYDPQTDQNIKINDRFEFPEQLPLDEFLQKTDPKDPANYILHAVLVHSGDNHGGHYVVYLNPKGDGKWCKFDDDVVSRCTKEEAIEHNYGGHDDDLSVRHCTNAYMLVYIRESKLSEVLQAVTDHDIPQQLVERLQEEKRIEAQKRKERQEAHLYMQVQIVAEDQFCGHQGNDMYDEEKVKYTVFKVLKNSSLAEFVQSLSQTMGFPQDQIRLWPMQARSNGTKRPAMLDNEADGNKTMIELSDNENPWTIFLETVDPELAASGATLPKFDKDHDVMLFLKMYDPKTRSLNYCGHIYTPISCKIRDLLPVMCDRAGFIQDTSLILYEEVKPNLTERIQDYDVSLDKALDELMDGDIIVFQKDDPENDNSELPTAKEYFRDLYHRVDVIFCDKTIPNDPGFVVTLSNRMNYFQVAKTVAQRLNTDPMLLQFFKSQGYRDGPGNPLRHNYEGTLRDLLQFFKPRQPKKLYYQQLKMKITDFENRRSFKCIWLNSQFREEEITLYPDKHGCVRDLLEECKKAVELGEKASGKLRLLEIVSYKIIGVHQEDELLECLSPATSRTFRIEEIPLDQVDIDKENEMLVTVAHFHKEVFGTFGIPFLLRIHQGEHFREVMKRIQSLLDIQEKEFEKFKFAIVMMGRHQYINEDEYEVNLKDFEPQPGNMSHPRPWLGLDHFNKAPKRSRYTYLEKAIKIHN

Row | Compound | IC50
1 | Cc1cc(C#N)cc(-c2ccnc3cc(CN4C(=O)CCC4=O)sc23)c1OCC1(C#N)CNC1 [Example 27, 3-((4-Cyano-2-(2-((2,5-dioxopyrrolidin-1-yl)methyl)thieno[3,2-b]pyridin-7-yl)-6-methylphenoxy)methyl)azetidine-3-carbonitrile] | < 1000 nM
2 | Cc1cc(Cl)cc(-c2ncnc3cc(CN4C(=O)CN(C)C4=O)sc23)c1O[C@@H]1CNC[C@@H]1F [Example 146, 3-((4-(5-Chloro-2-(((3R,4S)-4-fluoropyrrolidin-3-yl)oxy)-3-methylphenyl)thieno[3,2-d]pyrimidin-6-yl)methyl)-1-methylimidazolidine-2,4-dione] | < 1000 nM
3 | Cc1cc(Cl)cc(-c2ccnc3cc(CN4C(=O)C5C(C4=O)C5(C)C)sc23)c1O[C@H]1CC[C@H](C)NC1 (stereo partly drawn) [Example 399, 3-[[7-[5-chloro-3-methyl-2-[[(3S,6S)-6-methyl-3-piperidyl]oxy]phenyl]thieno[3,2-b]pyridin-2-yl]methyl]-6,6-dimethyl-3-azabicycllo[3.1.0]hexane-2,4-dione; 2,2,2-trifluoroacetic acid] | < 1000 nM
4 | CCC(O)c1cc2ncnc(-c3cc(Cl)cc(C)c3O[C@@H]3CNC[C@@H]3F)c2s1 (stereo partly drawn) [Example 94, 1-(4-(5-Chloro-2-(((3R,4S)-4-fluoropyrrolidin-3-yl)oxy)-3-methylphenyl)thieno[3,2-d]pyrimidin-6-yl)propan-1-ol] | 1000 to 10000 nM
5 | Cc1cc(Cl)cc(-c2ccnc3ccsc23)c1OC1CC2CNC1C2 (stereo not drawn) [Example 171, 7-(2-((2-Azabicyclo[2.2.1]heptan-6-yl)oxy)-5-chloro-3-methylphenyl)thieno[3,2-b]pyridine] | 10000 to 30000 nM
6 | CCC(O)c1cc2nccc(-c3cc(C#N)cc(C)c3OCC3(C#N)CNC3)c2s1 (stereo not drawn) [Example 10, 3-((4-Cyano-2-(2-(1-hydroxypropyl)thieno[3,2-b]pyridin-7-yl)-6-methylphenoxy)methyl)azetidine-3-carbonitrile] | < 1000 nM
7 | CCC(O)c1cc2nccc(-c3cc(Cl)cc(C)c3OCC3(CC)CNC3)c2s1 (stereo not drawn) [Example 38, 1-(7-(5-Chloro-2-((3-ethylazetidin-3-yl)methoxy)-3-methylphenyl)thieno[3,2-b]pyridin-2-yl)propan-1-ol] | < 1000 nM

Second part, the compound after the results:

Row | IC50 | Compound
8 | < 1000 nM | Cc1cc(Cl)cc(-c2ccnc3cc(CN4C(=O)C5C(C4=O)C5(C)C)sc23)c1O[C@@H]1CCNC[C@@H]1C (stereo partly drawn) [Example 366, 3-[[7-[5-chloro-3-methyl-2-[[(3S,4R)-3-methyl-4-piperidyl]oxy]phenyl]thieno[3,2-b]pyridin-2-yl]methyl]-6,6-dimethyl-3-azabicyclo[3.1.0]hexane-2,4-dione dihydrochloride]
9 | < 1000 nM | Cc1cc(Cl)cc(-c2ccnc3cc(CN4C(=O)C5CCCC5C4=O)sc23)c1O[C@@H]1CNC[C@@H]1F (stereo partly drawn) [Example 141, 2-((7-(5-Chloro-2-(((3R,4S)-4-fluoropyrrolidin-3-yl)oxy)-3-methylphenyl)thieno[3,2-b]pyridin-2-yl)methyl)tetrahydrocyclopenta[c]pyrrole-1,3(2H,3aH)-dione]
10 | < 1000 nM | Cc1cc(Cl)cc(-c2ccnc3c(F)c(CN4C(=O)CCC4=O)sc23)c1O[C@H]1CCCNC1 [Example 163, (S)-1-((7-(5-Chloro-3-methyl-2-(piperidin-3-yloxy)phenyl)-3-fluorothieno[3,2-b]pyridin-2-yl)methyl)pyrrolidine-2,5-dione]

Same assay, conditions: recombinant full-length USP7 62 pM; ubiquitin-rhodamine 100 nM; 30-minute incubation, 1 hour reaction at room temperature; read-out: Potency (USP7 IC50)

Row | IC50 | Compound
11 | < 1000 nM | Cc1cc(Cl)cc(-c2ccnc3cc(Cn4c(=O)ccn(CC(F)(F)F)c4=O)sc23)c1OC1CC2(COC2)C1 [Example 679, 3-[[7-[5-chloro-3-methyl-2-(2-oxaspiro[3.3]heptan-6-yloxy)phenyl]thieno[3,2-b]pyridin-2-yl]methyl]-1-(2,2,2-trifluoroethyl)pyrimidine-2,4-dione]

Same assay, conditions: recombinant full-length USP7 62 pM; ubiquitin-rhodamine 100 nM; 30-minute pre-incubation, 1 hour reaction at room temperature; read-out: Potency (USP7 IC50)

Row | Compound | IC50
12 | COC(=O)[C@H]1C[C@H](Oc2c(C)cc(Cl)cc2-c2ccnc3cc(Cn4c(=O)ccn(CC(F)(F)F)c4=O)sc23)CN1 [Example 653, methyl (2R,4S)-4-[4-chloro-2-[2-[[2,6-dioxo-3-(2,2,2-trifluoroethyl)pyrimidin-1-yl]methyl]thieno[3,2-b]pyridin-7-yl]-6-methyl-phenoxy]pyrrolidine-2-carboxylate] | < 1000 nM
13 | CCN1CC[C@@H](Oc2c(C)cc(Cl)cc2-c2ccnc3cc(Cn4c(=O)ccn(C)c4=O)sc23)[C@@H](C)C1 [Example 455, 3-[[7-[5-chloro-2-[[(3S,4R)-1-ethyl-3-methyl-4-piperidyl]oxy]-3-methyl-phenyl]thieno[3,2-b]pyridin-2-yl]methyl]-1-methyl-pyrimidine-2,4-dione] | < 1000 nM

Continued, values first:

Row | IC50 | Compound
14 | < 1000 nM | Cc1cc(Cl)cc(-c2ccnc3cc(Cn4c(=O)ccn(CC(F)(F)F)c4=O)sc23)c1O[C@H]1CCNC[C@@H]1C [Example 629, 3-[[7-[5-chloro-3-methyl-2-[[(3S,4S)-3-methyl-4-piperidyl]oxy]phenyl]thieno[3,2-b]pyridin-2-yl]methyl]-1-(2,2,2-trifluoroethyl)pyrimidine-2,4-dione]
15 | < 1000 nM | Cc1cc(Cl)cc(-c2ccnc3cc(Cn4c(=O)c(F)cn(CC(F)(F)F)c4=O)sc23)c1O[C@@H]1CCNC[C@@H]1C [Example 551, 3-[[7-[5-chloro-3-methyl-2-[[(3S,4R)-3-methyl-4-piperidyl]oxy]phenyl]thieno[3,2-b]pyridin-2-yl]methyl]-5-fluoro-1-(2,2,2-trifluoroethyl)pyrimidine-2,4-dione]
16 | < 1000 nM | Cc1cc(Cl)cc(-c2ccnc3cc(CN4C(=O)CCC4=O)sc23)c1OC1CCCNC1C (stereo not drawn) [Example 419, 1-[[7-[5-chloro-3-methyl-2-[(2-methyl-3-piperidyl)oxy]phenyl]thieno[3,2-b]pyridin-2-yl]methyl]pyrrolidine-2,5-dione]
17 | < 1000 nM | Cc1cc(Cl)cc(-c2ccnc3cc(Cn4c(=O)ccn(C)c4=O)sc23)c1OC1CCCN(C(C)C)C1 (stereo not drawn) [Example 505, 3-[[7-[5-chloro-2-[(1-isopropyl-3-piperidyl)oxy]-3-methyl-phenyl]thieno[3,2-b]pyridin-2-yl]methyl]-1-methyl-pyrimidine-2,4-dione]
18 | < 1000 nM | Cc1cc(Cl)cc(-c2ccnc3cc(CN4C(=O)CCC4=O)sc23)c1OC1CC2(CCN2)C1 (stereo not drawn) [Example 464, 1-[[7-[2-(1-azaspiro[3.3]heptan-6-yloxy)-5-chloro-3-methyl-phenyl]thieno[3,2-b]pyridin-2-yl]methyl]pyrrolidine-2,5-dione; 2,2,2-trifluoroacetic acid]
19 | < 1000 nM | Cc1cc(Cl)cc(-c2ccnc3cc(Cn4c(=O)ccn(CC(F)(F)F)c4=O)sc23)c1O[C@@H]1CN[C@@H](C)C1 [Example 632, 3-[[7-[5-chloro-3-methyl-2-[(3S,5S)-5-methylpyrrolidin-3-yl]oxy-phenyl]thieno[3,2-b]pyridin-2-yl]methyl]-1-(2,2,2-trifluoroethyl)pyrimidine-2,4-dione]
20 | < 1000 nM | Cc1cc(Cl)cc(-c2ccnc3cc(Cn4c(=O)ccn(C)c4=O)sc23)c1O[C@H]1CCN[C@@H](C)C1 [Example 593, 3-[[7-[5-chloro-3-methyl-2-[[(2S,4S)-2-methyl-4-piperidyl]oxy]phenyl]thieno[3,2-b]pyridin-2-yl]methyl]-1-methyl-pyrimidine-2,4-dione]
21 | < 1000 nM | Cc1cc(Cl)cc(-c2ccnc3cc(CN4C(=O)C[C@@H](F)C4=O)sc23)c1OC1CCNCC1 [Example 414, (3R)-1-[[7-[5-chloro-3-methyl-2-(4-piperidyloxy)phenyl]thieno[3,2-b]pyridin-2-yl]methyl]-3-fluoro-pyrrolidine-2,5-dione]
